Measured values from patent US20140045809A1, “CORROLES FOR NEUROPROTECTION AND NEURORESCUE” (priority 2008, published 2014).
Entries after “also recorded” stand apart in the source; their conditions may differ.

Assays:
[1] = test system: cleaved caspase-3; assay: Cleaved caspase-3 level in 6-OHDA-treated SH-SY5Y cells, immunofluorescence; format: cell-based, human; settings: 20 μM, 30 min before 6-OHDA (40 μM), 24 h
Description: (§1) SH-SY5Y cells were pretreated with or without corroles 1C-Fe, 2C-Mn and 3C-Mn and porphyrins 1P-Fe and 2P-Mn (20 μM), 30 min before exposure to 6-OHDA (40 μM) for a subsequent 24 h period. Cell viability was evaluated by MTT test and cell death was assessed using the apoptotic cell death detection ELISA kit. For neurorescue, SH-SY5Y cells were first exposed to 40 μM 6-OHDA for 0.5. 1, 1.5 and 3 h, followed by the addition of the compounds 1C-Fe, 2C-Mn and 3C-Mn (20 μM) and incubated for further 24 h. Growth-associated protein (GAP-43) was detected by fluorescence microscopy using a specific primary antibody. Apoptotic nuclei were determined by terminal deoxynucleotidyl transferase-mediated UTP-digoxigenin nick end labeling analysis. 4′,6-Diamidino-2-phenylnidole (DAPI) staining was applied for nuclear labeling. […]
Since 6-OHDA is also known to induce apoptosis in various cell types, including SH-SY5Y (von Coelln et al. 2001; Nie et al. 2002; Shimizu et al. 2002; Jordan et al. 2004), we further tested effect of corroles on the levels of the apoptotic marker, cleaved caspase-3, a major executer of the mitochondrial intrinsic pathway of apoptosis.

[2] = SOD activity (catalytic decomposition of superoxide anion radical), cytochrome C assay; format: biochemical
Description: (§2) SOD activity (enzyme-like catalytic decomposition of superoxide anion radical) of the corroles 1C-Fe, 6C-Fe, 1C-Mn, 1C-Cu, 2C-Mn and 3C-Mn was examined via the cytochrome C assay. The catalytic rate constants for decomposition of peroxynitrite (PN) by the newly prepared iron corrole 6C-Fe and manganese corrole 3C-Mn were determined via stopped-flow kinetics as previously described for corroles 1C-Fe, 1C-Mn, and 2C-Mn (Mahammed and Gross, 2006; Gershman et al., 2007). These tests are performed in order to estimate how electronic and structural variables affect reactivity, which is a crucial factor for design of new complexes.

[3] = test system: NSC-34 cells; format: cell-based, mouse; settings: 20 μM, 24 h; for SIN-1-induced cytotoxicity (MTT and ELISA): 30 min before SIN-1 (700 μM)
Description: The neuroprotective effects of the iron corrole 1C-Fe and analogous porphyrin 1P-Fe against H2O2 insult were further examined in the motor neuron cell line, NSC-34. NSC-34 cell is a hybrid neuroblastoma x spinal cord (NSC) cell line that resembles motor neurons, displaying a multipolar neuron-like phenotype. Mouse motoneuronal NSC-34 cells were pretreated with or without the corroles 1C-Fe or 2C-Mn or the structurally-related porphyrins 1P-Fe, 2P-Mn, respectively, 30 min before exposure to H2O2 (200 μM) or SIN-1 (700 μM) for a subsequent 24 h period. Cell viability (FIGS. 18A, 19A) was evaluated by MTT test and cell death (FIGS. 18B, 19B) was assessed using the apoptotic cell death detection ELISA kit. [The graphs in FIGS. 18A-18B and 19A-19B present results expressed as percentage of untreated control.

[4] = test system: RIN-m cells; assay: Protection of RIN-m beta cells against H2O2 toxicity (MTT); format: cell-based, rat; settings: for cytoprotective effect against H2O2-induced toxicity: H2O2 150 μM
Description: Two insulin-secreting beta cell lines, rat insulinoma (INS-1E) and RIN-m cells, were used to examine the protective effect of corrole 1C-Fe. The cells were cultured at 37° C., in a humid 5% CO2, 95% air environment in regular RPMI-1640 medium (Invitrogen) supplemented with 5% fetal calf serum (FCS).
After 2 days of culture, RIN-m cells (5×10^4 cells/well in 96-well plates) were treated with corrole 1C-Fe (1-50 μM) before addition of 35 μM of H2O2. Cell viability was evaluated by a colorimetric assay for mitochondrial function estimation using the MTT test as previously described (Gassen et al., 1998) and expressed as percentage of control.
RIN-m cells were grown as described in Example 5. After 3 days of culture, RIN-m cells (2.5×10^4 cells/well in 96-well plates) were treated with corroles 1C-Fe or 5C-Fe or porphyrin 1P-Fe (1 and 20 μM), added 30 min prior to treatment with 35 μM H2O2 and further incubated for 24 h. Cell injury was evaluated by MTT test. […] […].
Protective effect of iron(III) corrole complexes against H2O2-induced toxicity (150 μM) was compared to that of manganese(III) corroles and related porphyrin. […].

[5] = test system: SH-SY5Y cells; assay: Neuroprotection/neurorescue against SIN-1-induced cell death in SH-SY5Y cells; format: cell-based, human; settings: for protection against SIN-1 (MTT reduction analysis and ELISA assay): 30 min before SIN-1, 24 h (Example 12)
Description: SH-SY5Y cells were cultured in DMEM-Eagle/F-12(HAM) (1:1) containing 10% FCS. Cells were resuspended in medium containing 2% FCS, seeded in microtiter plates (96 wells) and allowed to attach for 24 h before initiation of treatment. […]

[6] = test system: SH-SY5Y cells; format: cell-based; settings: for protection against 6-OHDA compared with porphyrins 1P-Fe and 2P-Mn / 6-OHDA-induced cytotoxicity (MTT, cell death ELISA) / cell mortality, morphology and apoptotic nuclei (GAP-43 immunofluorescence, TUNEL, DAPI): 20 μM; for protection against 6-OHDA compared with porphyrins 1P-Fe and 2P-Mn: 6-OHDA 40 μM, immunofluorescence; for 6-OHDA-induced cytotoxicity (MTT, cell death ELISA) / cell mortality, morphology and apoptotic nuclei (GAP-43 immunofluorescence, TUNEL, DAPI): 30 min before 6-OHDA (40 μM)
Description: SH-SY5Y cells were cultured in DMEM-Eagle/F-12(HAM) (1:1) containing 10% FCS. Cells were resuspended in medium containing 2% FCS, seeded in microtiter plates (96 wells) and allowed to attach for 24 h. To examine the neuroprotective effect, cells were pretreated for 30 min with corroles 1C-Fe and 5C-Fe (1-20 μM), and were then exposed to 6-OHDA (60 μM) for further 24 h. For neurorescue assessment, SH-SY5Y cells were first treated with 6-OHDA (60 μM) for 0.5 h, 1.5 h, 3 h and 6 h followed by the addition of compounds 1C-Fe and 5C-Fe (10 μM) for further 24 h.
as §1

[7] = Catalytic decomposition of peroxynitrite (PN), stopped-flow kinetics (Table 1); format: biochemical
Description: as §2

SMILES | 6-OHDA-induced increase of cleaved caspase-3 [1] | IC50 [2] | protection against H2O2-mediated cytotoxicity (MTT and ELISA) ([3]; 30 min before H2O2 (200 μM)) | SIN-1-induced cytotoxicity (MTT and ELISA) [3] | protective effect against H2O2 toxicity relative to porphyrin 1P-Fe (MTT) ([4]; 20 μM, 30 min before 35 μM H2O2, 24 h) | protective effect against H2O2 toxicity (MTT) ([4]; 1-50 μM before 35 μM H2O2) | cytoprotective effect against H2O2-induced toxicity [4] | neurorescue after SIN-1 insult ([5]; 20 μM added 0.5, 1.5 or 3 h after insult, 24 h (Example 11)) | cytoprotection against different SIN-1 concentrations ([5]; 25 μM corrole, FIG. 12C) | neuroprotective effect against SIN-1 induced toxicity ([5]; 10 and 20 μM, 30 min pretreatment, 24 h (Example 11)) | inhibition of neuronal death by SIN-1 ([5]; 10 and 20 μM, less potent than 2C-Mn and 3C-Mn) | protection against SIN-1 (MTT reduction analysis and ELISA assay) [5] | protection against 6-OHDA compared with porphyrins 1P-Fe and 2P-Mn [6] | 6-OHDA-induced cytotoxicity (MTT, cell death ELISA) ([6]; 24 h) | cell mortality, morphology and apoptotic nuclei (GAP-43 immunofluorescence, TUNEL, DAPI) ([6]; 24 h) | neuroprotective effect against 6-OHDA-induced toxicity ([6]; 1-20 μM, 30 min before 6-OHDA (60 μM), 24 h) | neurorescue after 6-OHDA insult ([6]; 6-OHDA (60 μM) for 0.5, 1.5, 3 and 6 h, then 10 μM, 24 h) | kcat, catalytic rate constant for decomposition of PN [7]
O=S(=O)(O)c1cc2[n]3c1C(c1c(F)c(F)c(F)c(F)c1F)=C1C=CC4=[N+]1[Fe-]31[n]3c(cc(S(=O)(=O)O)c3-2)C(c2c(F)c(F)c(F)c(F)c2F)=c2ccc([n]21)=C4c1c(F)c(F)c(F)c(F)c1F (stereo not drawn) [1C-Fe, 2,17-bis(sulfonato)-5,10,15-tris(pentafluorophenyl)-corrolato iron(III)] | abolished partially | 1.64 µM | significant protection | significantly attenuated | exhibit a greater protective effect | significant protective effect | showed cytoprotective effects | instigated neurorescue | protect cells against different SIN-1 concentrations | dose-dependent neuroprotective effect | able to inhibit neuronal death | protect, in a dose-dependent manner | remarkable superiority over the porphyrins | significantly attenuated 6-OHDA-induced cytotoxicity | significantly attenuated 6-OHDA-induced cell mortality, improved cell morphology and reduced the number of apoptotic nuclei | dose-dependent neuroprotective effect | instigated neurorescue | 2e+06 M⁻¹ s⁻¹
C[n+]1ccc(C2=C3C=CC4=[N+]3[Mn-]35[n]6c2ccc6-c2ccc([n]23)C(c2cc[n+](C)cc2)=c2ccc([n]25)=C4c2c(F)c(F)c(F)c(F)c2F)cc1.[I-].[I-] (stereo not drawn) [2C-Mn, 5,15-bis(4-N-methyl-pyridilium)-10-pentafluorophenyl-corrolato manganese(III) diiodide salt] | totally | 1.52 µM |  | significantly attenuated |  |  | totally inefficient; also recorded: inefficiency |  |  |  |  | protect, in a dose-dependent manner | remarkable superiority over the porphyrins | significantly attenuated 6-OHDA-induced cytotoxicity | significantly attenuated 6-OHDA-induced cell mortality, improved cell morphology and reduced the number of apoptotic nuclei |  |  | 400000 M⁻¹ s⁻¹
